The text below walks through data of ChEMBL document CHEMBL3879901, “Substituted isoquinolin-1(2H)-ones, and methods of use thereof” (2012).

In general, IC50 refers to the concentration that gives 50% inhibition. Broadly, the EC50 is the concentration giving half of the maximal effect.

Experiment [1] concerns the target Phosphatidylinositol 3-kinase (Mus musculus) (UniProt P26450+P42337). Briefly: Inhibition of PI3K in mouse unfractionated splenocytes assessed as decrease in anti-CD3-stimulated Akt phosphorylation at S473 preincubated for 15 mins followed by anti-CD3 stimulation measured after 5 to 15 mins by phosflow method. The format is cell-based.
The target of experiment [2] is PI3-kinase class I (Homo sapiens) (UniProt P27986+P42338+P48736+P42336+O00459+O00329+Q8WYR1+Q92569). The experiment in a line: Inhibition of PI3K in human PBMC assessed as decrease in anti-CD3-stimulated Akt phosphorylation at S473 preincubated for 15 mins followed by anti-CD3 stimulation measured after 5 to 15 mins by phosflow method.
In experiment [3] the target is RAC-alpha serine/threonine-protein kinase (Mus musculus) (UniProt P31750). The experiment in a line: […] of anti-CD3-stimulated Akt phosphorylation in mouse unfractionated splenocytes preincubated for 15 mins followed by anti-CD3 stimulation measured after 5 to 15 mins by phosflow method. Type of experiment: cell-based.
The target of experiment [4] is RAC-alpha serine/threonine-protein kinase (Homo sapiens) (UniProt P31749). The experiment in a line: […] of anti-CD3-stimulated Akt phosphorylation in human PBMC preincubated for 15 mins followed by anti-CD3 stimulation measured after 5 to 15 mins by phosflow method.
Another experiment deals with PI3K p110 beta/p85 alpha (Homo sapiens, UniProt P42338). Briefly: Inhibition of N-terminal His6-tagged recombinant full-length human p110beta/untagged recombinant full length p85alpha expressed in baculovirus infected Sf21 cells using phosphatidylinositol as substrate in presence of gamma-32P-ATP after 5 mins by thin layer chromatographic method.
PI3K p110 beta/p85 alpha, sequence (P27986 whole entry): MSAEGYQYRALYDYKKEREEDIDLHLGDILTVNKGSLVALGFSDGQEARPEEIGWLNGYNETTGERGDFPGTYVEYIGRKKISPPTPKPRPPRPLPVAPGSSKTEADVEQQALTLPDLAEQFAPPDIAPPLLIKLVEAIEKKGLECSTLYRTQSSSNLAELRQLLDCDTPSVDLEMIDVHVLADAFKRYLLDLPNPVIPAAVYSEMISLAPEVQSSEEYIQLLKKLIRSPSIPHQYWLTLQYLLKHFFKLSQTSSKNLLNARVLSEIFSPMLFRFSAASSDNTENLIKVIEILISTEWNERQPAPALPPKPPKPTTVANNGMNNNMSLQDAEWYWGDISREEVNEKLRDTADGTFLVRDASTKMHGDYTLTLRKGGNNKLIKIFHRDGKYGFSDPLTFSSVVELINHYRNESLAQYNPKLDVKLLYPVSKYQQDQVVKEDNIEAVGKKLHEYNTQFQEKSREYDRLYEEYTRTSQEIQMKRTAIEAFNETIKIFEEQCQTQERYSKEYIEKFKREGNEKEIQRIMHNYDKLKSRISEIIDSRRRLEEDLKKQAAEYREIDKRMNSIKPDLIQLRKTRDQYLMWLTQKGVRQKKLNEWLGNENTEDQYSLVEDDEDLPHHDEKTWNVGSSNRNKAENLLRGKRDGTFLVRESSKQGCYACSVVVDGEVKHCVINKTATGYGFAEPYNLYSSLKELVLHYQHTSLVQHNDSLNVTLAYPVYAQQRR
PI3K p110 beta/p85 alpha, sequence (P42338 whole entry): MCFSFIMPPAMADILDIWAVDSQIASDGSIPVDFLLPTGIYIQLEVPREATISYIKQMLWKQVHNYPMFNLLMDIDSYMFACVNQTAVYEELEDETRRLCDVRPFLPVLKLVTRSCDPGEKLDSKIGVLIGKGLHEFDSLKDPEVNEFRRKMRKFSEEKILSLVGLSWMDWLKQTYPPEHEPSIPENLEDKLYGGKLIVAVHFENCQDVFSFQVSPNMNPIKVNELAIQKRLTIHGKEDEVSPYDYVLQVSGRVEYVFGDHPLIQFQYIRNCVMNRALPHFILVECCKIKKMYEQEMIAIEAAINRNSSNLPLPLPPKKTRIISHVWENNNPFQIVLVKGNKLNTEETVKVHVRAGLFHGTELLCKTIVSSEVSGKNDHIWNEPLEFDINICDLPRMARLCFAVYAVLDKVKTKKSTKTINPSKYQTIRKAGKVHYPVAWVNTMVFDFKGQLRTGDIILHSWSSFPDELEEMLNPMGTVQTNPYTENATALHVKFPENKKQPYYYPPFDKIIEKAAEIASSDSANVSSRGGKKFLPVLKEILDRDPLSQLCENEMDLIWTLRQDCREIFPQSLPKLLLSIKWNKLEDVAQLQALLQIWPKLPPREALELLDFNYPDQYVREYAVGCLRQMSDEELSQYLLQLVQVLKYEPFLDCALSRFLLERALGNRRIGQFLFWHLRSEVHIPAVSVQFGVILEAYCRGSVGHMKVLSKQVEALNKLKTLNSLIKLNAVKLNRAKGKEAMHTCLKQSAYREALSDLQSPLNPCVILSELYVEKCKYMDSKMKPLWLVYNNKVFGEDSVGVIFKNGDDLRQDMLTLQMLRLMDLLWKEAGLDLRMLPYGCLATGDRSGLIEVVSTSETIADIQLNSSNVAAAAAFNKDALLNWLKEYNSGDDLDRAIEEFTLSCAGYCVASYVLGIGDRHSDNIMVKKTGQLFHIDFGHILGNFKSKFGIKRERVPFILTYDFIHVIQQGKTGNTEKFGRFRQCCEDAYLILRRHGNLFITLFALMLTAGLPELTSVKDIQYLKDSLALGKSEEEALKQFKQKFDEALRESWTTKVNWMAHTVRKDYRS
The test system of experiment [5] is Rattus norvegicus. Briefly: Antiarthritic activity in type 2 collagen-induced Lewis rat arthritis model assessed as reduction in ankle diameter at 10 to 60 mg/kg, po administered every 12 hrs for 16 days measured on day 9 of compound dosing to day 17 of post last dose relative to vehicle-treated control. Type of experiment: functional, organism-based.
Experiment [6] deals with Rattus norvegicus. The experiment in a line: Antiarthritic activity in type 2 collagen-induced po dosed Lewis rat arthritis model assessed as reduction in knee inflammation administered every 12 hrs for 16 days measured on day 17 of post last dose by toluidine blue staining-based assay. The format is functional, organism-based.
In experiment [7] the test system is Rattus norvegicus. The experiment in a line: Antiarthritic activity in type 2 collagen-induced po dosed Lewis rat arthritis model assessed as reduction in knee pannus administered every 12 hrs for 16 days measured on day 17 of post last dose by toluidine blue staining-based assay. Type of experiment: functional, organism-based.
Experiment [8] concerns Rattus norvegicus. Briefly: Antiarthritic activity in type 2 collagen-induced po dosed Lewis rat arthritis model assessed as reduction in cartilage damage in knee administered every 12 hrs for 16 days measured on day 17 of post last dose by toluidine blue staining-based assay. The format is functional, organism-based.
For experiment [9], the system named is Rattus norvegicus. The experiment in a line: Antiarthritic activity in type 2 collagen-induced po dosed Lewis rat arthritis model assessed as reduction in bone resorption in knee administered every 12 hrs for 16 days measured on day 17 of post last dose by toluidine blue staining-based assay. The format is functional, organism-based.
The subject of experiment [10] is Rattus norvegicus. The experiment in a line: Antiarthritic activity in type 2 collagen-induced Lewis rat arthritis model assessed as reduction in serum anti-type 2 collagen levels at 60 mg/kg, po administered every 12 hrs for 16 days measured on day 17 of post last dose by ELISA relative to control. The arrangement: scale not given: the % may be the effect or the level left. Type of experiment: functional. On the technique in general: An ELISA detects its analyte on a solid surface through an enzyme-linked reagent.

For another experiment, the species on record is Homo sapiens. Briefly: Inhibition of allergen-induced activation of basophilic granulocytes in human whole blood preincubated for 20 mins followed by allergen induction measured after 20 mins using sub micromolar range of compound by basotest assay. The format is functional, tissue-based.
For experiment [11], the target named is Phosphatidylinositol 4,5-bisphosphate 3-kinase catalytic subunit gamma isoform (Homo sapiens, UniProt P48736). Briefly: Inhibition of recombinant human C-terminal His6-tagged p110gamma expressed in insect cells using phosphatidylinositol as substrate in presence of gamma-32P-ATP after 5 mins by thin layer chromatographic method.
Phosphatidylinositol 4,5-bisphosphate 3-kinase catalytic subunit gamma isoform, sequence (P48736 whole entry, canonical isoform): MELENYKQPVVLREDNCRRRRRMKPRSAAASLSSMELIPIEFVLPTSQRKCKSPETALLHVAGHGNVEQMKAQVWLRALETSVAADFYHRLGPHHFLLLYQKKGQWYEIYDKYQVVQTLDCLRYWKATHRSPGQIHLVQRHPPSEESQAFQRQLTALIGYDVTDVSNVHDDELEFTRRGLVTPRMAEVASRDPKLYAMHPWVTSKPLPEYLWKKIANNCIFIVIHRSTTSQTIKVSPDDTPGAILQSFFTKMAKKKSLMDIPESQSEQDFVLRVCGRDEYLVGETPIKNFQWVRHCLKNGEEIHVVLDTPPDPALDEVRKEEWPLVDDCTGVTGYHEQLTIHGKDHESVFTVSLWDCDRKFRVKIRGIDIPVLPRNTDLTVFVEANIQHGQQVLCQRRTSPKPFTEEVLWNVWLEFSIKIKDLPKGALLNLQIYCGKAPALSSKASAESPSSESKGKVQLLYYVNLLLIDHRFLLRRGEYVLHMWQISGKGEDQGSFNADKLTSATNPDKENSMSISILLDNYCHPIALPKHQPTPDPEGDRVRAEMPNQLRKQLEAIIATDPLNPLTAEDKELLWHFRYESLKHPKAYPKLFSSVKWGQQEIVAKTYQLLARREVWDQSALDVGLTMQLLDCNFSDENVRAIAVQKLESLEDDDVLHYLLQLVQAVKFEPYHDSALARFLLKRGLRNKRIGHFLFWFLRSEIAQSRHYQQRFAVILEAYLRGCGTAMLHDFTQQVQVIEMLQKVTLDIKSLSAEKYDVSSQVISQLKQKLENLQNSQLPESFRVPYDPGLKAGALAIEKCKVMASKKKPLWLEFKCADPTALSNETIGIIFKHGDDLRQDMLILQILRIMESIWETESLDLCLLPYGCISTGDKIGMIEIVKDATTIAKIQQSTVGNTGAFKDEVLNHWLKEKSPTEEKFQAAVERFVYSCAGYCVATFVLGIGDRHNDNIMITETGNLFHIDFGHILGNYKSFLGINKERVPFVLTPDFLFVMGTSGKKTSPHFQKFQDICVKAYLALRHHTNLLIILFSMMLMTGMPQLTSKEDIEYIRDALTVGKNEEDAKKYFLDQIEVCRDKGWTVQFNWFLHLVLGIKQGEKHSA
For experiment [12], the target named is PI3-kinase p110-delta/p85-alpha (Homo sapiens, UniProt O00329). The experiment in a line: Inhibition of N-terminal His6-tagged recombinant full-length human p110delta/untagged recombinant full length p85alpha expressed in baculovirus infected Sf21 cells using phosphatidylinositol as substrate in presence of gamma-32P-ATP after 5 mins by thin layer chromatographic method.
PI3-kinase p110-delta/p85-alpha, sequence (P27986 whole entry): as the sequence (P27986 whole entry) above
PI3-kinase p110-delta/p85-alpha, sequence (O00329 whole entry): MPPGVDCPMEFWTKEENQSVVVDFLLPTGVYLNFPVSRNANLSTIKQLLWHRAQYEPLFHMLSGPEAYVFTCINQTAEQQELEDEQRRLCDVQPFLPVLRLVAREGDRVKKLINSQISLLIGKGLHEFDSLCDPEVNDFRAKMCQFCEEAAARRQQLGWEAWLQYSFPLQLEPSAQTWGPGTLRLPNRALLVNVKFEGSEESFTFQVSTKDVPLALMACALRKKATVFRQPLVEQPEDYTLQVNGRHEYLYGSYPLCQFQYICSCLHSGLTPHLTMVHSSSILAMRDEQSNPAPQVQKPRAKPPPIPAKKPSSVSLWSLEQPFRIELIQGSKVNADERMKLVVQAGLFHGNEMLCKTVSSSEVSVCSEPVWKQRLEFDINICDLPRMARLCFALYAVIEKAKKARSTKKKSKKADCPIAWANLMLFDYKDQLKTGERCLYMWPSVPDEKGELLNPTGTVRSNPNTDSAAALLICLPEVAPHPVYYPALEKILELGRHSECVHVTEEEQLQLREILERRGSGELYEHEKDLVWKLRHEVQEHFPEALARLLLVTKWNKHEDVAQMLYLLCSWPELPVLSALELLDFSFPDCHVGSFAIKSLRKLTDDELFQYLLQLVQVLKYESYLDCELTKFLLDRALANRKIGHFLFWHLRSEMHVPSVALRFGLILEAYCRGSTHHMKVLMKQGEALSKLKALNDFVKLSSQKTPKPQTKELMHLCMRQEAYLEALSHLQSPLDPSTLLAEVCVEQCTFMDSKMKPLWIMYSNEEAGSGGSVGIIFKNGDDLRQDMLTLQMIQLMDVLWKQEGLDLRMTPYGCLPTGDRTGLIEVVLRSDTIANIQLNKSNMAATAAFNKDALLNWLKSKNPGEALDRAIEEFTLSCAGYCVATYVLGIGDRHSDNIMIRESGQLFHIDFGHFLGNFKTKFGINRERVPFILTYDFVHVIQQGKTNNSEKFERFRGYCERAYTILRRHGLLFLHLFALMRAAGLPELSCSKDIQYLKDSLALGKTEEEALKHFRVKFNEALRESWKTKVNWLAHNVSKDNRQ

For experiment [13], the target named is PI3-kinase p110-alpha/p85-alpha (Homo sapiens, UniProt P42336). Briefly: Inhibition of N-terminal His6-tagged recombinant full-length human p110alpha/untagged recombinant full length human p85alpha expressed in baculovirus infected Sf21 cells using phosphatidylinositol as substrate in presence of gamma-32P-ATP after 5 mins by thin layer chromatographic method.
PI3-kinase p110-alpha/p85-alpha, sequence (P27986 whole entry): as the sequence (P27986 whole entry) above
PI3-kinase p110-alpha/p85-alpha, sequence (P42336 whole entry): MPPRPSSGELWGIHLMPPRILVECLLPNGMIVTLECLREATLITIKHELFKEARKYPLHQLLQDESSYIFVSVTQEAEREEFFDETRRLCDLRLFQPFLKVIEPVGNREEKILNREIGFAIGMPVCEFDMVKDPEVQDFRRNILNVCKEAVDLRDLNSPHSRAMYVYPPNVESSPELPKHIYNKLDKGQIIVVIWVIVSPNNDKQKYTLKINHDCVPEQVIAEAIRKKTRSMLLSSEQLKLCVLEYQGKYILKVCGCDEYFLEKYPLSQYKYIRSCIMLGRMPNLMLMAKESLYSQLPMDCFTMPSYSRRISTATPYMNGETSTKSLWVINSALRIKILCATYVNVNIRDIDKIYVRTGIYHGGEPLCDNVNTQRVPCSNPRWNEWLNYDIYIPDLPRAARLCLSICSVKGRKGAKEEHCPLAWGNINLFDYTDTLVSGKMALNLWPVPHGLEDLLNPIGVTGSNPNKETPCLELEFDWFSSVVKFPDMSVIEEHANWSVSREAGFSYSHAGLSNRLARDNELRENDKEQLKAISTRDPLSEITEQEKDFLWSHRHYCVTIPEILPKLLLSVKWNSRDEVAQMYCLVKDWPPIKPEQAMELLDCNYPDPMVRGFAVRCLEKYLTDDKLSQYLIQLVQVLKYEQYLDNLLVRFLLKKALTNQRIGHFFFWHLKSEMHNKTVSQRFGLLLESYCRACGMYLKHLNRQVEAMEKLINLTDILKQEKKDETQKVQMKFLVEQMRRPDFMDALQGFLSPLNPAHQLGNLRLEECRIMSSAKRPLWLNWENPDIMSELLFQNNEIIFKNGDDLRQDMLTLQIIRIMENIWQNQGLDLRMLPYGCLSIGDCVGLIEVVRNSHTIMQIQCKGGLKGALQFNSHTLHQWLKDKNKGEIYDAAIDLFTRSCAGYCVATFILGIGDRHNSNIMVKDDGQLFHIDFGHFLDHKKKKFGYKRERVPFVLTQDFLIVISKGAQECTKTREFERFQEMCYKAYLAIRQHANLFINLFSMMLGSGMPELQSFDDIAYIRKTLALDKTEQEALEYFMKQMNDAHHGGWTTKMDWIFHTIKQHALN

Experiment [14] can be described thus: Antiproliferative activity against Balb/c mouse splenic B cells preincubated for 30 mins followed by LPS or F(ab')2 donkey anti-mouse IgM and recombinant mouse IL4 stimulation measured after 72 hrs by Alamar Blue reduction assay. The format is functional, cell-based. (The colour change of resazurin is a common sign of viable cells or microbes.)

Molecules are shown by their SMILES. Calls of active or inactive are those of the source. No cut-off for these calls is given here.

In the case of `CO[C@H]1C[C@@H]2CC[C@@H](C)[C@@](O)(O2)C(=O)C(=O)N2CCCC[C@H]2C(=O)O[C@H]([C@H](C)C[C@@H]2CC[C@@H](O)[C@H](OC)C2)CC(=O)[C@H](C)/C=C(\C)[C@@H](O)[C@@H](OC)C(=O)[C@H](C)C[C@H](C)/C=C/C=C/C=C/1C`, the inhibition entry in [1] and in experiment [2] was “Active” in each case. Further, the outcome in experiment [3] and in experiment [4] was Active.
In the case of `Cc1ccccc1-n1c(Cn2nc(-c3cc(O)cc(F)c3)c3c(N)ncnc32)cc2cccc(C)c2c1=O`, the IC50 at PI3K p110 beta/p85 alpha was less than 1 µM. The result with Rattus norvegicus [5] was Active. The Activity result was “Dose-dependent effect” in the experiment with Rattus norvegicus [6]; “Dose-dependent effect” with Rattus norvegicus [7]; “Dose-dependent effect” with Rattus norvegicus [8]; “Dose-dependent effect” in the experiment on Rattus norvegicus [9]; 24% with Rattus norvegicus [10]. Further, in the experiment filed under Homo sapiens, the inhibition entry was “Active”.
For `Cc1ccccc1-n1c(Cn2nc(I)c3c(N)ncnc32)cc2cccc(C)c2c1=O`, the IC50 is 0.1 to 1 µM in experiment [11], less than 0.1 µM in experiment [12], more than 10 µM in experiment [13] and more than 10 µM on PI3K p110 beta/p85 alpha. Besides, in experiment [14], the half-maximal effective concentration (EC50) lay in the range of 0.1 to 1 µM.
As for `Cc1ccccc1-n1c(Cn2nc(-c3ccc(F)cc3)c3c(N)ncnc32)cc2cccc(C)c2c1=O`, the IC50 was less than 1 µM in [11], less than 10 µM in [12], more than 10 µM in [13] and more than 10 µM on PI3K p110 beta/p85 alpha. In addition, the 50% effective concentration (EC50) in experiment [14] was less than 10 µM.
For `COc1cccc(-c2nn(Cc3cc4cccc(C)c4c(=O)n3-c3ccccc3C)c3ncnc(N)c23)c1`, the IC50 in [11] was less than 1 µM; in experiment [12] it was less than 1 µM; in experiment [13], more than 10 µM; at PI3K p110 beta/p85 alpha, less than 10 µM. In [14], the EC50 was less than 1 µM.
As to `Cc1ccccc1-n1c(Cn2nc(C#N)c3c(N)ncnc32)cc2cccc(C)c2c1=O`, the half-inhibitory concentration (IC50) in experiment [11] was less than 10 µM; in [12], less than 0.1 µM; in [13], more than 10 µM; at PI3K p110 beta/p85 alpha, more than 10 µM. In addition, the EC50 in [14] was less than 0.1 µM.
With `Cc1ccccc1-n1c(Cn2nc(-c3cccc(Cl)c3)c3c(N)ncnc32)cc2cccc(C)c2c1=O`, the half-maximal inhibitory concentration (IC50) in [11] was less than 1 µM; in [12], less than 10 µM; in experiment [13], more than 10 µM; at PI3K p110 beta/p85 alpha, more than 10 µM. Moreover, the EC50 in experiment [14] is less than 10 µM.
In the case of `Cc1cccc2cc(Cn3nc(-c4cnn(CCO)c4)c4c(N)ncnc43)n(-c3ccccc3F)c(=O)c12`, the IC50 in [11] is less than 1 µM; in experiment [12], less than 0.1 µM; in [13] it was more than 10 µM; at PI3K p110 beta/p85 alpha it was more than 10 µM. In addition, the EC50 in experiment [14] was in the range of 1 to 10 µM.
Consider `CCc1ccccc1-n1c(Cn2nc(C#C[C@@H](C)O)c3c(N)ncnc32)cc2cccc(C)c2c1=O`, for which the IC50 was less than 1 µM in experiment [11], less than 0.1 µM in experiment [12], more than 10 µM in [13] and less than 10 µM at PI3K p110 beta/p85 alpha. For the same compound, in experiment [14], the concentration giving a half-maximal response (EC50) was less than 0.1 µM.
`Cc1cccc2cc(Cn3nc(-c4cccc(O)c4)c4c(N)ncnc43)n(-c3ccccc3OCCN3CCOCC3)c(=O)c12`: the IC50 is less than 1 µM in experiment [11], less than 0.1 µM in [12], more than 10 µM in [13] and more than 10 µM at PI3K p110 beta/p85 alpha. Besides, in experiment [14], the EC50 is less than 0.1 µM.
In the case of `Cc1cccc2cc(Cn3nc(C#C[C@@H](C)O)c4c(N)ncnc43)n(-c3ccccc3Cl)c(=O)c12`, the IC50 in experiment [11] was less than 1 µM; in [12], less than 0.1 µM; in experiment [13], more than 10 µM; on PI3K p110 beta/p85 alpha, more than 10 µM. Also, the EC50 in experiment [14] was less than 1 µM.
With `Cc1cccc2cc(Cn3nc(-c4cn[nH]c4)c4c(N)ncnc43)n(-c3ccccc3Cl)c(=O)c12`, the IC50 in experiment [11] is less than 1 µM; in experiment [12], 0.1 to 10 µM; in [13], more than 10 µM; at PI3K p110 beta/p85 alpha, more than 10 µM. The EC50 in experiment [14] was less than 0.1 µM.
Consider `Cc1cccc2cc(Cn3nc(-c4cn[nH]c4)c4c(N)ncnc43)n(-c3cccc(F)c3)c(=O)c12`, for which the IC50 in experiment [11] was less than 1 µM; in [12] it was less than 0.1 µM; in experiment [13], more than 10 µM; on PI3K p110 beta/p85 alpha, more than 10 µM. The concentration giving a half-maximal response (EC50) in experiment [14] was less than 0.1 µM.
As for `Cc1cccc2cc(Cn3nc(-c4cn[nH]c4)c4c(N)ncnc43)n(-c3ccccc3F)c(=O)c12`, the IC50 was less than 1 µM in experiment [11], less than 0.1 µM in [12], more than 10 µM in [13] and less than 10 µM at PI3K p110 beta/p85 alpha. In addition, the 50% effective concentration (EC50) in experiment [14] is less than 1 µM.
With `Cc1ccccc1-n1c(Cn2nc(C#C[C@@H](C)O)c3c(N)ncnc32)cc2cccc(C)c2c1=O`, the half-maximal inhibitory concentration (IC50) is less than 10 µM in [11], less than 0.1 µM in experiment [12], more than 10 µM in [13] and more than 10 µM at PI3K p110 beta/p85 alpha. Besides, the EC50 in experiment [14] is less than 0.1 µM.
Turning to `Cc1ccccc1-n1c(Cn2nc(-c3ccc4oc(N)nc4c3)c3c(N)ncnc32)cc2cccc(C)c2c1=O`, the half-inhibitory concentration (IC50) in [11] is less than 0.1 µM; in experiment [12] it was less than 0.1 µM; in [13], less than 10 µM; at PI3K p110 beta/p85 alpha, less than 10 µM. For the same compound, the EC50 in experiment [14] is less than 1 µM.
Turning to `Cc1cccnc1-n1c(Cn2nc(-c3cc(O)cc(F)c3)c3c(N)ncnc32)cc2ccccc2c1=O`, the IC50 was less than 1 µM in experiment [11], less than 0.1 µM in [12], more than 10 µM in experiment [13] and more than 10 µM on PI3K p110 beta/p85 alpha. For the same compound, in experiment [14], the EC50 was less than 0.1 µM.
